{"source": "patent US20090233885A1", "about": "“Compositions and Methods for Fat Reduction” (priority 2006, published 2009)", "origin": "cited, not measured here", "key": {"[1]": {"conditions": "total administered amount per treatment"}, "[2]": {"test_system": "adipose and muscle cells"}}, "data": [{"substance": "phosphatidylcholine [PC]", "values": [{"measurement": "total administered amount above which cholinergic side effects (nausea, vomiting, diarrhea, flushing, sweating, bradycardia) occur", "setting": "[1]", "value": "exceeds 2000 mg per treatment"}]}, {"substance": "sodium deoxycholate [DC]", "values": [{"measurement": "cell specificity of effect", "setting": "[2]", "value": "nonspecific effects on both adipose and muscle cells"}]}]}
